We go through 1 sequence from US20150344535A1, “NEUROTROPHIN-TYROSINE KINASE RECEPTOR SIGNALING” (THE UNIVERSITY OF QUEENSLAND, priority 2012, published 2015).

Assay [1] relates to PC12 cells. The experiment in a line: PC12 cell neurite outgrowth in response to NGF. In kind it is cell-based. On the procedure:
(§1) To assess the effect of p75^NTR constructs (FIG. 2) or c29 peptide on TrkA-mediated neuritogenesis, transfected PC12 cells were grown in the presence of 100 ng/ml NGF for 3 days, with fresh medium and NGF treatments added on day 2. Cells were then imaged live on an Olympus (IX81) microscope fitted with a CO2 atmospheric chamber, using analySIS software. Four random images of 80-100 cells were taken for each treatment condition and images were determined by measuring polygon neurite length of all cells in each image. Data analysis was performed using Graphpad PRISM.
Once PC12 cells are fully differentiated, they become dependent on NGF for survival (Greene, 1978), but can survive if grown in the presence of lower concentrations of NGF (Greene and Tischler, 1976). To determine if c29 could potentiate TrkA-mediated signals, PC12 cells were cultured in the presence of NGF concentrations ranging from 1-100 ng/ml for 5 days, following serum starvation and pre-incubation with c29, scrambled control peptide or no peptide (FIG. 5A). […] Peptides (1 μM) were added to the cultures every 48 hours at the time of NGF addition and medium exchange.

Assay [2] relates to PC12 cells. The experiment in a line: PC12 cell neurite outgrowth in response to EGF. The format is cell-based. The settings on record: vs no peptide or scrambled peptide. On the procedure:
as §1
To determine whether the effect of the c29 peptide on enhancement of neurite outgrowth was NGF and TrkA specific, we repeated the experiment using EGF to stimulate differentiation.

Another assay concerns the target T1, EGF receptor (Homo sapiens, UniProt P00533).
T1 construct: GFP; expressed in transfected cells; host or cells: HEK293
Description: Biotinylated peptide pull down of EGF receptor. The note with it: lysate of transfected HEK293 cells, FIG. 4D. The format is binding. On the procedure: For peptide pull down assays, the biotinylated c29 or LC1 control peptides were incubated with protein A-sepharose beads or Dynabeads MyOne Streptavidin T1 (Invitrogen) overnight at 4° C. Cell lysates were then added to the peptide-protein A-sepharose complex or Dynabeads MyOne Streptavidin T1 and incubated for 3 hours at 4° C. Peptide-receptor complexes were washed extensively with RIPA lysis buffer and eluted by boiling in Laemmli sample buffer. For p75^NTR construct immunoprecipitations, HEK293 cells were treated with NGF at 50 ng/ml for 10 minutes 48 hours after transfection with 1 μg DNA per well. Cells were immediately harvested in ice-cold phosphate buffered saline (PBS) and washed twice, then lysed in 1 ml of lysis buffer. Cell lysates were pre-cleared in 75 μl (1:2) protein-G sepharose: PBS by rotation end-over-end for 2 hours at 4′C. Lysates were then incubated with 3-5 μg antibody, either mouse-anti-YFP/GFP (Roche) or rabbit-anti-human p75^NTR intracellular domain antibody (Promega), and rotated end-over-end for 2 hours at 4° C.
Immunoprecipitation was performed by the addition of 75 μl (1:2) protein-G sepharose: PBS and incubation end-over-end for 16 hours at 4° C. The immunoprecipitate was washed 4 times with 1 ml of PBS then eluted in 60 μl 2×LDS sample buffer. […]

Assay [3] deals with primary E13 motor neurons. Description: Primary motor neuron survival and growth factor withdrawal. In kind it is cell-based, mouse.
Description: Briefly, pregnant mothers were sacrificed by cervical dislocation and the uterus removed by Caesarean section and placed in Neurobasal medium. Lumbar spinal cords were dissected from E13 embryos on ice. Batches of 2 or 3 spinal cords were incubated in 1 mL 0.05% trypsin-ETDA for 10 minutes at 37° C. in 15 mL tubes. To prevent further trypsinisation, 0.14 mg/mL trypsin inhibitor solution was added and the tissue centrifuged at 100×g for 7 minutes, without acceleration or deceleration. The supernatant was removed and the spinal cord tissue was resuspended in 1 mL of Neurobasal Medium (NB). In order to obtain a single cell suspension, each batch of 2-3 spinal cords was agitated manually for 2 minutes. The suspension was allowed to settle and the supernatant collected after being filtered through a 100 μm sieve. The remaining tissue was further triturated ˜8 times through a P200 pipette and filtered through a 100 μm sieve. The combined supernatants were then separated by centrifugation on a 5 ml cushion of 9% (vol/vol) OptiPrep® gradient in NB containing 2% B27 supplement for 45 min at 850×g, without acceleration or deceleration. To prevent toxicity following Optiprep® separation, the layer containing MNs was harvested into 10 mL of NB containing 10% HS, and the cell suspension was centrifuged at 900×g for 7 minutes at 24° C., without acceleration or deceleration. The supernatant was removed and the cell pellet was resuspended in 1 mL of NB medium.
The number of viable motor neurons was counted on a haemocytometer using 0.08% trypan blue and neurons plated in 4-well culture dishes at a density of 3,000 cells per well in 100 μL NB containing 10% HS. […] Primary motor neurons were maintained at 37° C. in a humidified atmosphere with 5% CO2 and culture medium was replaced at day 1 and 3. Phase contrast images of motor neurons were taken using an Olympus (6IX81) microscope after motor neurons were grown in vitro for up to 7 days.
To assess the effects of c29 peptide on motor neuronal survival in limiting growth factor concentrations, isolated spinal motor neurons were plated and treated with 0.01, 0.1 or 1.0 ng/ml of BDNF in the presence of 1 μm PTD4-linked c29 or scrambled peptide, and cultured for 5 days with the addition of fresh BDNF and peptide treatments on day 2 and 4. For growth factor-withdrawal assays, following initial plating in 1 ng/ml of BDNF, CNTF or GDNF, cultures were washed four times with serum-free Neurobasal (NB) medium, after which the medium was replaced with medium containing 1-0.01 ng/ml of BDNF, CNTF or GDNF and 1 μM PTD4-linked c29 or scrambled peptides, as indicated. For assays investigating the effect of c29 on NGF-mediated motor neuron death, cultures were grown in 1 ng/ml BDNF, CNTF or GDNF for 1 day, before being treated with 100 ng/ml 2.5S NGF in and 1 μM PTD4-linked c29 or scrambled peptide, as indicated. Motor neurons were counted on day 1, and to assess the effects of various treatments days 3 and 5 (4 separate 10×10 grid fields of each well per experiment).
In a further assay the test system is TrkA and p75^NTR. Description: Surface biotinylation of receptors in PC12 cells. In kind it is cell-based. The note with it: 1 μM peptide, with or without NGF. The method, then: FIG. 10: The juxtamembrane domain of p75^NTR increases the association of NGF to cells expressing TrkA. (A and B) Dose response graphs of the proportion (%) of PC12 cells with fluorescence intensity above background following treatment with 26 […] NGFFITC, a FITC-conjugated antibody to the extracellular domain of p75^NTR (A), or an antibody to TrkA (detected using an anti-rabbit Alexa 594 secondary) (B), after pretreatment with increasing concentrations of […] peptide. (n=3 experiments per data point; mean±SEM *p<0.05, **p<0.01) (C) Representative western blots (WB) of TrkA and p75^NTR present in streptavidin precipitates (surface biotin), or lysate flow through of PC12 cells that had been treated for 1 hour with NGF and/or c29 and scrambled (SC) peptide, prior to the surface proteins being labelled with biotin for 90 minutes on ice.

Assay [4] relates to TrkB-expressing cortical neurons. The experiment in a line: Western blot of phosphorylated Erk1/2 in BDNF-treated cortical neurons. The format is cell-based. The settings on record: E16 cultured cortical neurons, 15 minutes after BDNF treatment. (A western blot detects proteins with antibodies after separation by electrophoresis.)

“KRWNSCKQNKQGANSRPVNQTPPPEGEKL (c29- Fragment of p75ICD) [29 amino acid peptide of the p75NTR juxtamembrane Chopper domain; delivered to cells linked to PTD4 or disulfide-linked carrier]”: the “neurite outgrowth (length)” value in the assay with PC12 cells [1] (1 ng/ml NGF, day 5, peptide 1 μM) was 20 μm. Besides, the “neurite length vs scrambled peptide or NGF alone” value with PC12 cells [1] (1 ng/ml and 10 ng/ml NGF, day 5, peptide 1 μM) is given as “significantly longer neurites”. For the same sequence, in the assay on PC12 cells [1] (10 ng/ml NGF, day 5, peptide 1 μM), the median neurite length came out at 60 μm. Besides, in the assay with PC12 cells [1] (100 ng/ml NGF, day 5, peptide 1 μM, vs untreated cultures), the median neurite outgrowth result is reported as “no difference”. The neurite growth result with PC12 cells [1] (fragments incubated with PC12 cells and NGF, FIG. 16) is on record as “stimulated neurite growth”. Further, in the assay with PC12 cells [2], the “neuritogenesis in EGF-treated cultures” value was “no effect on neuritogenesis”. In addition, in the assay with EGF receptor, the “pull down of EGF receptor” value was “did not pull down”. In assay [3] (1 ng/ml BDNF plus NGF), the “NGF-induced cell death of motor neurons” value is listed as “significantly protected from NGF-induced cell death”. Moreover, in assay [3] (10-fold lower BDNF, vs scrambled peptide), the “neuronal survival after BDNF withdrawal” value is given as “significantly increased neuronal survival”. Besides, the “survival of motor neurons following CNTF or GDNF withdrawal” value in assay [3] (10-fold lower CNTF or GDNF) was “no effect on the survival of motor neurons”. Also, in assay [3] (BDNF 0.01-1.0 ng/ml, after 5 days, vs control cultures), the motor neuron survival entry is recorded as “increased survival”. Further, the “surface or total receptor levels of TrkA and p75^NTR” value with TrkA and p75^NTR is “no significant difference”. Moreover, the “phosphorylated Erk1/2 in response to BDNF” value in assay [4] is “enhanced trophic signaling”.
